Values quoted from earlier work, collected in article PMC6399674 (The Journal of Organic Chemistry, 2019).
Read-outs that look alike come from different tables or passages of the source.

Target: T1, lectin LecA (Pseudomonas aeruginosa, UniProt Q05097)
T1 sequence (Q05097 1-122): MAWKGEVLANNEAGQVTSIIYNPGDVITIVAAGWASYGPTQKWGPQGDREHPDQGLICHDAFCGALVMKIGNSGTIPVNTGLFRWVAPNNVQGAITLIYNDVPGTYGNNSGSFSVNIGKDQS
Conditions: ITC

Row | SMILES | n (stoichiometry) | ΔG | ΔH | –TΔS [kcal/mol] | Kd (as stated in text) [µM] | Kd [µM]
1 | O=C[C@H](O)[C@@H](O)[C@@H](O)[C@H](O)CO [D-dalactose, galactose] | 1.1 | –5.5 kcal/mol | –7.9 kcal/mol | 2.3 | 70 to 90 | 
2 | OC[C@H]1O[C@@H](Oc2ccccc2)[C@H](O)[C@@H](O)[C@H]1O [Gal-β-OPh] | 0.9 | –6.9 kcal/mol | –11.2 kcal/mol | 4.8 | ~9 | 8.8
